Laboratory results from publication PMC8300810, “Antibacterial Residue Excretion via Urine as an Indicator for Therapeutical Treatment Choice and Farm Waste Treatment” (Antibiotics, 2021).

How the values were obtained:
[1] = Concentration in urine compared with muscle of treated pigs; type: in vivo; details: Figure 4
Text: Urine samples were obtained in parallel with muscle and blood samples gathered for the study performed by Serrano et al.. That study’s aim was to find a suitable matrix for ante mortem tests for the detection of antimicrobial compounds, which would avoid the slaughter of contaminated animals and thus the entrance of antimicrobial compounds into the food chain. The matrix should be characterized via an easy extraction procedure from living animals and a good correlation with the concentration found in muscle. […] These findings agree with those described previously by Seymour et al. for cows: urine samples from treated cows tested positive for the presence of antimicrobial residues even after the end of the withdrawal period set by the manufacturer. Moreover, this issue could also be interpreted as the occurrence of higher levels of antimicrobials in urine compared to other tissues such as muscle.
With the exception of sulfamethoxypyrydazine, concentrations described in urine were much higher than the ones described for muscle.

[2] = Antimicrobial excretion in urine of treated pigs through the withdrawal period, LC-MS/MS
Experimental: Each of these compounds was administered via intramuscular (IM) injection.
A total of 66 previously untreated piglets were procured at treatment onset. Starting at 40 days before administration of the compounds, they were kept on the premises of the Faculty of Veterinary Sciences at the University of Zaragoza (Zaragoza, Spain) and used in tandem for another study. […] From them, 39 were female and 27, male. During acclimatization and withdrawal periods, the piglets were fed ad libitum with a special mixed feed free of antibiotics (ARS Alendi S.A., Huesca, Spain), and water was provided from a separate, controlled water circuit. Piglets were raised in separate pens depending on the antibiotic with which they were administrated.
Urine was collected on different days within the withdrawal period determined by the respective antimicrobial drug manufacturers. It was collected from live pigs via mobilization of the animal and bladder stimulation. At pre-set time intervals, pigs were slaughtered and urine was obtained via bladder puncture; at the same time, urine was gathered from living animals subjected to the same treatment and withdrawal period. Consequently, urine was collected from 1 to 9 pigs on each day of analysis. As animals were bred in batches and slaughtered all along the withdrawal period, the number of sampled animals decreased as the withdrawal period progressed. Samples were kept aliquoted and frozen at −20 °C until analysis.
1.5 mL of urine were spiked with 100 µL of IS spiking solution. 100 µL 0.1M EDTA and 5 mL of purified water were added and mixed. 500 µL were taken and further diluted with 1500 µL of purified water. It was filtered through 0.2 µm directly into HPLC vials.
All urine samples were analysed using a SCIEX Exion LC coupled to a TripleQuad 6500+ triple quadrupole detector equipped with an Acquity UPLC® BEH C18 column (1.7 µm, 2.1 × 100 mm). The mobile phase consisted of eluent A (0.1% formic acid in water) and eluent B (0.1% formic acid in acetonitrile) at a flow rate of 0.4 mL min^−1. […] The injected volume was 5 µL. Positive electrospray ionisation was used, and analytes were detected in MRM mode by monitoring 2 transitions for each compound of interest (Table 3). Regardless of the compound analysed, the technique’s limit of detection (LoD) was 10 ppb.
For each day of the withdrawal period pre-set in this study to evaluate the behaviour of antimicrobials, 1 to 9 samples of urine coming from different animals subjected to the same treatment and withdrawal period were analysed via LC-MS/MS.
The rates of elimination (λz) of antibiotics from urine were determined via regression analysis. The corresponding half-lives of elimination(T1/2) were calculated according to the following equation:
Equation (1): Half-life of elimination where T1/2 is the half-life of elimination and λZ is the rate of elimination. (1) T1/2=Ln (2)/λz

[3] = cited from earlier work
[4] = both, Landrace × Large White, pig, in vivo

Compound | concentrations in urine compared to muscle [1] | total urine elimination [2, 4] | time period required to complete the excretion by urine (in words) ([2]; urine, pigs, estimated from the regression) | fraction of administered antibiotic eliminated in the faeces [3] [%] | fraction of administered antibiotic excreted in urine via glomerular filtration [3] [%] | elimination period in urine [2, 4] | half-life ([2]; both, Landrace × Large White, pig, urine, im) [h] | concentration in urine at the beginning of the withdrawal period (comparison among compounds) ([2]; pig, in vivo) | time period required to complete the excretion by urine (in words) ([2]; pig, in vivo)
CCN1CCN(c2cc3c(cc2F)c(=O)c(C(=O)O)cn3C2CC2)CC1 [Enrofloxacin] | much higher | ca. 3 weeks | almost three weeks |  |  |  |  |  | 
CN(C)[C@@H]1C(O)=C(C(N)=O)C(=O)[C@@]2(O)C(O)=C3C(=O)c4c(O)cccc4[C@@](C)(O)[C@H]3[C@H](O)[C@@H]12 [Oxytetracycline] | much higher |  |  | 40 | 60 | over 2 months | 100 | highest concentrations | more than two months
COc1ccc(NS(=O)(=O)c2ccc(N)cc2)nn1 [Sulfamethoxypyridazine] |  | ca. 1 weeks |  |  |  |  |  |  | 
